# In patent publication US12501899B2, “Mite infestation treatment” (priority 2019, dated 2025):
# Structures can show the parent of a compound that is named as a salt. Where two headings read alike, the source gives them in different places.
# Columns and labels:
# Varroa destructor = settings: for mortality for Varroa mites: after 24 hours
# Procedure: About 300 bees (Apis mellifera) infected with Varroa destructor were taken from a hive superinfected with Varroa destructor. The bees were then placed in a device allowing to detach Varroa mites attached to the bees (device described in Community model n° 003419415-0001) filled with icing sugar. The device was stirred for 2 minutes to sample the Varroa mites attached to the bees. The icing sugar allows to interfere between the bee and the Varroa mite that was attached thereto. Varroa mites were harvested with icing sugar because they pass through the holes in the device, unlike bees. The Varroa mites were then separated from the icing sugar.
# The Varroa mites thus recovered were dispatched in boxes (10 Varroa mites per box).
# The bees were then dispatched in the boxes (10 per box).
# The bees were then put to sleep for a few minutes using CO2 (flow of 3 liters for 20 seconds) in order to deposit 1 μL of compound to be tested on their thorax using a pipette. It should be noted that the bees which received romifidine hydrochloride at a concentration of 10 μg/μL received 2 μL of product. The bees were unconscious for the time the compound to be tested was deposited, that is to say around three minutes, then they woke up.
# After thoracic deposition of the compound to be tested, the 10 bees from the same box were transferred to a box containing the 10 Varroa mites (cf. “Preparation of Varroa mites” above). Liquid sugar was left in each of the boxes to feed the bees during the observations. The series of boxes was then placed in an oven at […] with a humidity of 50% in order to approximate hive conditions as closely as possible.
# The mortality of Varroa mites and bees was then monitored 5 minutes, 2 hours, 4 hours and 24 hours after application of the compound to be tested to the bees. Dead Varroa mites correspond to Varroa mites detached from the bees. Dead bees correspond to bees which no longer move and which are often placed on their thorax.
# The following compositions were applied to the thorax of the bees: • Solvent, • Amitraz at 1 μg/μL in acetone, • Clonidine hydrochloride at 100 μg/μL, 10 μg/μL, 1 μg/μL and 0.1 μg/μL in methanol, • Detomidine hydrochloride monohydrate at 1 μg/μL in methanol, • Dexmedetomidine hydrochloride at 100 μg/μL, 10 μg/μL, 1 μg/μL and 0.1 μg/μL in methanol, • Romifidine hydrochloride at 10 μg/μL and at 5 μg/μL in methanol, • Tizanidine hydrochloride at 1 μg/μL in methanol, • Medetomidine hydrochloride at 0.1 μg/μL in ethanol, • Levomedetomidine hydrochloride at 100 μg/μL, 10 μg/μL, 1 μg/μL and 0.1 μg/μL in methanol, • Octopamine at 1 μg/μL in ethanol. Results
# Rhipicephalus sanguineus = test: Topical acaricidal test on brown dog ticks; assay type: in vivo; settings: 168 h, 0.5 μl per tick, after 7 days of treatment; for mortality at 1 ppm: 1 ppm topical; for mortality at 10 ppm: 10 ppm topical; for mortality at 100 ppm: 100 ppm topical; for mortality at 1000 ppm: 1000 ppm topical
# Procedure: Brown dog ticks, Rhipicephalus sanguineus, of 2nd stage, from a single cohort were used.
# Three (3) compounds were tested, as well as a reference compound (Amitraze). For each compound tested and Amitraz, four doses (1000, 100, 10 and 1 ppm) were applied to the ticks topically. A negative control (acetone) and an untreated group were included for comparison. The experiments were carried out in triplicate.
# Ten ticks were placed in a clear plastic container, measuring approximately 120 mm in diameter and 45 mm in height. The ticks were then anesthetized by direct exposure (for 10 seconds) to carbon dioxide. The treatments were then applied to the back (scutum) of each tick, using a Hamilton syringe, up to 0.5 μl of treatment per tick (1 application).
# Cotton soaked in water was placed in each container to provide humidity throughout the experiment. The container was also vented throughout the experiment with a tube to introduce air into each container. The containers were maintained at a temperature of 23±3° C. Live, shocked and dead tick counts were taken daily after treatment for 7 days.
# The averages in percentage of each evaluation category (healthy, knocked down and dead) were calculated, as well as the standard error. An analysis of variance (ANOVA) was performed using Minitab software, 16th edition.
Structure (SMILES),mortality for Varroa mites (Varroa destructor; 0.1 μg/μL) [%],mortality for Varroa mites (Varroa destructor; 10 μg/μL) [%],mortality at 1 ppm (Rhipicephalus sanguineus) [%],mortality at 10 ppm (Rhipicephalus sanguineus) [%],mortality at 100 ppm (Rhipicephalus sanguineus) [%],mortality at 1000 ppm (Rhipicephalus sanguineus) [%],Varroacid effect (in words) (Varroa destructor; 0.1 μg/μL in ethanol),"Varroa mites killed / mortality for Varroa mites (Varroa destructor; 1 μg/μL, 1 μL on bee thorax, time not stated (monitored up to 24 hours)) [%]"
"Cc1cccc([C@H](C)c2c[nH]cn2)c1C [Dexmedetomidine hydrochloride, (S)-4-[1-(2,3-dimethylphenyl)-ethyl]-1H-imidazole]",100,100,20,93.3,100,100,–,–
Cc1cccc(C(C)c2cnc[nH]2)c1C (racemic) [Medetomidine hydrochloride],–,–,26.7,66.7,93.3,100,very effective,–
"Cc1cccc(Cc2cnc[nH]2)c1C [Detomidine hydrochloride, 4-[(2,3-dimethylphenyl)-methyl]-3H-imidazole]",–,–,26.7,23.3,50,100,–,–
Cc1ccc(/N=C/N(C)/C=N/c2ccc(C)cc2C)c(C)c1 [Amitraz],–,–,30,46.7,96.7,100,–,100
